Experimental data as given in PubChem BioAssay (NCI).
Values joined by “and” are separate entries in the source; they are usually repeats but may differ in a detail not shown here. Identical values can stand only once.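 Protocol summary: plate cells (96-well), add compound at 5 concentrations, incubate 48 h, interpolate endpoints linearly. The concentration for 50% growth inhibition is given as GI50. At the TGI there is no net growth.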

Legend:
Assay in all cases: NCI-60 cell line screen, 48 h
LOX IMVI melanoma = test system: LOX IMVI melanoma
HL-60(TB) leukemia = test system: HL-60(TB) leukemia
SNB-75 CNS = test system: SNB-75 CNS
786-0 renal = test system: 786-0 renal
CCRF-CEM leukemia = test system: CCRF-CEM leukemia
SK-OV-3 ovarian = test system: SK-OV-3 ovarian
OVCAR-3 ovarian = test system: OVCAR-3 ovarian
SNB-19 CNS = test system: SNB-19 CNS
MDA-MB-231 breast = test system: MDA-MB-231 breast
COLO 205 colon = test system: COLO 205 colon

SMILES	TGI (LOX IMVI melanoma)	TGI (HL-60(TB) leukemia)	TGI (SNB-75 CNS)	TGI (786-0 renal)	TGI (CCRF-CEM leukemia)	TGI (SK-OV-3 ovarian) [µM]	TGI (OVCAR-3 ovarian) [µM]	TGI (SNB-19 CNS) [µM]	TGI (MDA-MB-231 breast) [µM]	TGI (COLO 205 colon)	GI50 (LOX IMVI melanoma) [µM]	GI50 (HL-60(TB) leukemia) [µM]	GI50 (SNB-75 CNS) [µM]	GI50 (786-0 renal) [µM]	GI50 (CCRF-CEM leukemia) [µM]	GI50 (SK-OV-3 ovarian) [µM]	GI50 (OVCAR-3 ovarian) [µM]	GI50 (SNB-19 CNS) [µM]	GI50 (COLO 205 colon) [µM]	GI50 (MDA-MB-231 breast) [µM]
O=C1c2ccccc2C(O)(O)C1(O)C1(O)C(=O)c2ccccc2C1(O)O (stereo unspecified)	58.3 µM	53.2 µM	72.3 µM	> 100 µM	44.7 µM	> 100	65.9	> 100	> 100	40.5 µM	–	–	–	–	–	–	–	–	–	–
CCN(CC)CCCCNc1c2ccccc2[n+](C)c2c1[nH]c1ccccc12	2.03 µM	> 31 µM	1.27 µM	> 26 µM	3.39 µM	3.72	3.56	2.03	> 20.3	0.983 µM	0.346	5.69	0.297	1.29	0.59	0.366	0.433	0.269	0.189	–
CCC1C2Cc3ccc(O)cc3C1(CC)CCN2C (stereo unspecified)	> 100 µM	> 100 µM	> 100 µM	> 100 µM	> 100 µM	> 100	> 100	> 100	> 100	> 100 µM	–	–	–	–	–	–	–	–	–	–
COc1ccc(-c2nc(-c3nc4ccc(OC)cc4[nH]3)c3ccccn23)cc1	26 µM	7.75 µM	> 100 µM	> 100 µM	26.8 µM	> 100	62.1	> 100	> 100	39.7 µM	4.8	2.55	24	8.47	2.53	36.1	4.97	5.26	7.19	5.65
CN[C@@H](C)C(=O)N[C@H](C(=O)N1CCC[C@H]1C(=O)Nc1snnc1-c1ccccc1)C1CCCCC1	> 83.3 µM	48.1 µM	> 94.4 µM	> 100 µM	> 100 µM	0.723	> 100	> 100	21.4	42.1 µM	35.3	21.7	25.4	62.8	32.3	0.0244	58.5	> 100	21.6	0.778
CC1CCC(NC(=O)N(CCCl)N=O)CC1 (stereo unspecified)	39.8 µM and 52.6 µM	24.1 µM and 72.2 µM	74.4 µM and 66.7 µM	32.4 µM and 64.2 µM	30.3 µM and 55.8 µM	148	70.4	110	91.2	43.3 µM and 60.2 µM	14.7	8.98	27.3	13.9	8.11	–	–	55	23.1	–
COC(=O)c1nc(-c2ccccc2)oc1S(=O)(=O)Cc1ccccc1	8.7 µM	6.22 µM	27.1 µM	11 µM	8.41 µM	> 100	3.52	31.3	5.24	3.66 µM	2.88	2.3	14.1	3.25	2.91	70.2	1.94	16.3	1.84	2.18
COc1c(C)c2c(c(O)c1C/C=C(\C)CCC(=O)O)C(=O)OC2	> 100 µM	> 100 µM	> 100 µM	> 100 µM	> 100 µM	> 100	> 100	> 100	> 100	> 100 µM	0.132	0.639	0.938	0.326	0.0889	0.571	0.286	0.286	0.416	0.956
Cc1ccc(S(=O)(=O)N/N=C/c2c(O)ccc3ccccc23)cc1	> 100 µM	> 100 µM	74.3 µM	> 100 µM	> 100 µM	84.6	44.2	> 100	70.7	37.4 µM	–	–	–	–	–	–	–	–	–	–
C=C(C)C(=O)Nc1ccc(NC(C)C)cc1	> 100 µM	> 100 µM	> 100 µM	> 100 µM	> 100 µM	> 100	> 100	> 100	> 100	> 100 µM	> 100	> 100	> 100	> 100	> 100	> 100	> 100	> 100	> 100	> 100
C=C1CCC2C3(C)COC(c4ccc(N(C)C)cc4)OC3CCC2(C)C1C/C=C1/C(=O)OCC1O (stereo unspecified)	3.5 µM	3.6 µM	7.97 µM	25.3 µM	3.99 µM	50.4	3.98	32.3	20.8	12.7 µM	1.59	1.36	1.94	10.5	1.35	17	1.96	16.4	3.54	7.19
COc1cc(NC(C)CCCNC2CN3CCC2CC3)c2ncccc2c1 (stereo unspecified)	25 µM	11 µM	20.6 µM	27.1 µM	> 100 µM	28.5	11.4	32	15.7	7.16 µM	9.6	2.86	7.07	13.4	19	15.2	3.22	15.8	2.58	3.58
COc1cc2c(cc1C)NC(=O)/C2=C/c1ccccn1	10.4 µM	> 100 µM	> 100 µM	8.38 µM	> 100 µM	> 100	6.81	> 100	7.96	> 100 µM	3.25	5.35	8.52	2.48	0.782	3.41	2.61	4.07	4.23	2.02
O=C(O)C(/C=C/c1ccccc1)c1ccccc1 (stereo unspecified)	> 100 µM	75.1 µM	> 100 µM	> 100 µM	> 100 µM	> 100	> 100	> 100	> 100	> 100 µM	–	–	–	–	–	–	–	–	–	–
